Data published in the supplement of paper PMC10307832.

Columns and labels:
BI-D1870 + Trametinib = compound: CC(C)CCN1c2nc(Nc3cc(F)c(O)c(F)c3)ncc2N(C)C(=O)C1C [BI-D1870] + CC(=O)Nc1cccc(-n2c(=O)n(C3CC3)c(=O)c3c(Nc4ccc(I)cc4F)n(C)c(=O)c(C)c32)c1 [Trametinib] (partner 0.02 µM); assay: relative viability (nuclei count vs DMSO), 5 days (fraction); higher = more cells survive
How it was run: (§1)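 Cells from lung cancer lines were seeded into 1536-well plates and, one day later, dosed by pin tool. Treatments were either a single drug or a fixed dose of an anchor drug with five library-drug doses (not always all listed) in √10 steps. After 5 days, nuclei were stained in a one-step fixation (final 0.05% Triton X-100, 1% formaldehyde, 1 ug/ml Hoechst) and counted on 4× images, and relative viability is the treated-to-vehicle nuclei ratio, as the median of duplicate plates.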

BI-D1870 + AZD7762 = compound: CC(C)CCN1c2nc(Nc3cc(F)c(O)c(F)c3)ncc2N(C)C(=O)C1C [BI-D1870] + NC(=O)Nc1cc(-c2cccc(F)c2)sc1C(=O)N[C@H]1CCCNC1 [AZD7762] (partner 0.2 µM); assay: as above
How it was run: as §1

Row | Cell Line | relative viability (BI-D1870 + Trametinib; first compound 0.04 µM) | relative viability (BI-D1870 + Trametinib; first compound 0.1265 µM) | relative viability (BI-D1870 + Trametinib; first compound 0.4 µM) | relative viability (BI-D1870 + Trametinib; first compound 1.265 µM) | relative viability (BI-D1870 + Trametinib; first compound 4 µM) | relative viability (BI-D1870 + AZD7762; first compound 0.04 µM) | relative viability (BI-D1870 + AZD7762; first compound 0.1265 µM) | relative viability (BI-D1870 + AZD7762; first compound 0.4 µM) | relative viability (BI-D1870 + AZD7762; first compound 1.265 µM) | relative viability (BI-D1870 + AZD7762; first compound 4 µM)
1 | 201T | 0.694 | 0.683 | 0.703 | 0.705 | 0.715 | 0.663 | 0.534 | 0.602 | 0.618 | 0.696
2 | A-427 | 0.763 | 0.678 | 0.755 | 0.833 | 0.814 | 0.86 | 0.717 | 0.848 | 1.01 | 0.796
3 | ABC-1 |  |  |  |  |  | 0.805 | 0.82 | 0.796 | 0.791 | 0.895
4 | BEN | 1.01 | 0.896 | 1.05 | 1.04 | 0.963 | 0.699 | 0.574 | 0.633 | 0.961 | 0.67
5 | CAL-12T | 0.353 | 0.305 | 0.405 | 0.351 | 0.311 | 0.749 | 0.546 | 0.637 | 0.599 | 0.668
6 | COR-L23 | 0.75 | 0.536 | 0.589 | 0.622 | 0.572 |  |  |  |  | 
7 | COR-L 105 | 0.428 | 0.409 | 0.487 | 0.419 | 0.458 |  |  |  |  | 
8 | ChaGo-K-1 | 0.899 | 0.753 | 0.874 | 0.909 | 0.856 | 0.956 | 0.81 | 0.89 | 0.911 | 0.834
9 | EKVX | 0.336 | 0.281 | 0.339 | 0.401 | 0.445 | 0.632 | 0.72 | 0.61 | 0.742 | 0.701
10 | EMC-BAC-2 | 1.05 | 0.852 | 0.89 | 1.13 | 1.09 | 1.21 | 1.11 | 1.05 | 1.38 | 1.02
11 | EPLC-272H | 0.292 | 0.258 | 0.302 | 0.298 | 0.306 | 0.207 | 0.17 | 0.257 | 0.21 | 0.255
12 | H3255 | 0.655 | 0.506 | 0.568 | 0.661 | 0.599 | 0.956 | 0.965 | 0.851 | 1.07 | 0.892
13 | HARA | 0.613 | 0.548 | 0.702 | 0.876 | 1.04 | 0.442 | 0.307 | 0.263 | 0.318 | 0.297
14 | HCC-15 | 0.376 | 0.35 | 0.371 | 0.444 | 0.392 | 0.725 | 1.18 | 1.04 | 1.17 | 1.08
15 | HCC-44 | 1.04 | 1.06 | 1.07 | 1.04 | 1.2 | 1.02 | 0.988 | 1 | 1.04 | 1.04
16 | HCC-78 | 0.526 | 0.655 | 0.675 | 1.03 | 0.569 | 0.677 | 0.593 | 0.528 | 0.815 | 0.598
17 | HCC-366 | 0.347 | 0.311 | 0.328 | 0.39 | 0.221 | 0.389 | 0.273 | 0.202 | 0.662 | 0.477
18 | HCC-827 | 0.551 | 0.495 | 0.463 | 0.456 | 0.432 | 0.233 | 0.295 | 0.173 | 0.223 | 0.185

Row | Cell Line | relative viability (BI-D1870 + Trametinib; first compound 0.04 µM) | relative viability (BI-D1870 + Trametinib; first compound 0.1265 µM) | relative viability (BI-D1870 + Trametinib; first compound 0.4 µM) | relative viability (BI-D1870 + Trametinib; first compound 1.265 µM) | relative viability (BI-D1870 + Trametinib; first compound 4 µM) | relative viability (BI-D1870 + AZD7762; first compound 0.04 µM) | relative viability (BI-D1870 + AZD7762; first compound 0.1265 µM) | relative viability (BI-D1870 + AZD7762; first compound 0.4 µM) | relative viability (BI-D1870 + AZD7762; first compound 1.265 µM) | relative viability (BI-D1870 + AZD7762; first compound 4 µM)
19 | HOP-62 | 0.429 | 0.332 | 0.331 | 0.367 | 0.299 | 0.969 | 0.898 | 0.798 | 0.834 | 0.651
20 | LC-2-ad | 0.897 | 0.848 | 0.957 | 0.956 | 0.882 | 0.849 | 0.805 | 0.831 | 0.886 | 0.675
21 | LCLC-97TM1 | 0.214 | 0.181 | 0.174 | 0.221 | 0.146 | 0.194 | 0.317 | 0.174 | 0.368 | 0.335
22 | LCLC-103H | 0.692 | 0.616 | 0.653 | 0.7 | 0.63 | 0.768 | 0.655 | 0.804 | 0.871 | 0.741
23 | LK-2 | 0.864 | 0.8 | 0.786 | 0.97 | 0.649 | 0.509 | 0.473 | 0.374 | 0.536 | 0.263
24 | LOU-NH91 | 0.842 | 0.762 | 0.788 | 0.761 | 0.651 | 0.846 | 0.755 | 0.73 | 0.804 | 0.624
25 | LU99A | 0.513 | 0.436 | 0.519 | 0.511 | 0.533 | 0.414 | 0.3 | 0.429 | 0.655 | 0.49
26 | LXF-289 | 0.755 | 0.608 | 0.71 | 0.738 | 0.612 | 1.08 | 1.04 | 1.07 | 1.06 | 0.943
27 | NCI-H23 | 0.39 | 0.342 | 0.385 | 0.329 | 0.295 | 0.337 | 0.224 | 0.23 | 0.192 | 0.243
28 | NCI-H322M | 0.437 | 0.537 | 0.524 | 0.508 | 0.495 | 0.591 | 0.558 | 0.611 | 0.684 | 0.656
29 | NCI-H358 | 0.147 | 0.117 | 0.136 | 0.153 | 0.119 | 0.551 | 0.566 | 0.52 | 0.594 | 0.492
30 | NCI-H441 | 0.524 | 0.417 | 0.463 | 0.578 | 0.378 | 1.29 | 1.09 | 1.03 | 1.09 | 1.1
31 | NCI-H460 | 0.133 | 0.117 | 0.126 | 0.105 | 0.0577 | 0.702 | 0.621 | 0.566 | 0.993 | 0.829
32 | NCI-H520 | 0.645 | 0.627 | 0.683 | 0.612 | 0.302 |  |  |  |  | 
33 | NCI-H522 | 0.69 | 0.764 | 0.722 | 0.836 | 0.776 | 0.84 | 0.845 | 0.851 | 0.935 | 0.911
34 | NCI-H596 | 0.95 | 0.773 | 0.846 | 0.804 | 0.762 | 1.23 | 0.9 | 1.04 | 1.16 | 0.933
35 | NCI-H647 | 0.575 | 0.45 | 0.533 | 0.462 | 0.335 | 0.432 | 0.502 | 0.494 | 0.611 | 0.479
